ChEMBL document CHEMBL1201862, “PubChem BioAssay data set” (2004)
Activity calls are given as the source filed them.

Columns and labels:
HEK293 = test: EBV LMP1 TES2 canonical NF-kB signalling blockers – cell-based, HEK293, luciferase, cherry-pick, dose response (AID 588343); format: functional; conditions: Homo sapiens
[1] = biological target: T1, Latent membrane protein 1 (Human herpesvirus 4 (strain B95-8), UniProt P03230); test: LMP1 TES1 pathway selectivity over dsRED control – imaging, HEK293T, dual-color eGFP/dsRED, cherry-picks, selectivity assay for LMP1 NF-kB inhibitor project, dose response (AID 588398); format: functional, cell-based
T1 sequence (P03230 whole entry): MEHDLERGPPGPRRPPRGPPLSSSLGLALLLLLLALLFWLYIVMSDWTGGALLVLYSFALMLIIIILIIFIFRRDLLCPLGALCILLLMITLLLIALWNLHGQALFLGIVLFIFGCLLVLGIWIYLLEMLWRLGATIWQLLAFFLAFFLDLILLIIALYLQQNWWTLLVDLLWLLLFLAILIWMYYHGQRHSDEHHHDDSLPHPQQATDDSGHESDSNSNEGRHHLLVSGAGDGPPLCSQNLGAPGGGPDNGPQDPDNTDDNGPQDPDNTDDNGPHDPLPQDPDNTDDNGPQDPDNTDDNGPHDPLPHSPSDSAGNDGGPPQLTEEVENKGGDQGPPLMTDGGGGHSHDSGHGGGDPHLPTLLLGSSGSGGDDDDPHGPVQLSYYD

[2] = biological target: T2, Apoptotic protease-activating factor 1 (Homo sapiens, UniProt O14727); format: functional
T2 sequence (O14727 whole entry): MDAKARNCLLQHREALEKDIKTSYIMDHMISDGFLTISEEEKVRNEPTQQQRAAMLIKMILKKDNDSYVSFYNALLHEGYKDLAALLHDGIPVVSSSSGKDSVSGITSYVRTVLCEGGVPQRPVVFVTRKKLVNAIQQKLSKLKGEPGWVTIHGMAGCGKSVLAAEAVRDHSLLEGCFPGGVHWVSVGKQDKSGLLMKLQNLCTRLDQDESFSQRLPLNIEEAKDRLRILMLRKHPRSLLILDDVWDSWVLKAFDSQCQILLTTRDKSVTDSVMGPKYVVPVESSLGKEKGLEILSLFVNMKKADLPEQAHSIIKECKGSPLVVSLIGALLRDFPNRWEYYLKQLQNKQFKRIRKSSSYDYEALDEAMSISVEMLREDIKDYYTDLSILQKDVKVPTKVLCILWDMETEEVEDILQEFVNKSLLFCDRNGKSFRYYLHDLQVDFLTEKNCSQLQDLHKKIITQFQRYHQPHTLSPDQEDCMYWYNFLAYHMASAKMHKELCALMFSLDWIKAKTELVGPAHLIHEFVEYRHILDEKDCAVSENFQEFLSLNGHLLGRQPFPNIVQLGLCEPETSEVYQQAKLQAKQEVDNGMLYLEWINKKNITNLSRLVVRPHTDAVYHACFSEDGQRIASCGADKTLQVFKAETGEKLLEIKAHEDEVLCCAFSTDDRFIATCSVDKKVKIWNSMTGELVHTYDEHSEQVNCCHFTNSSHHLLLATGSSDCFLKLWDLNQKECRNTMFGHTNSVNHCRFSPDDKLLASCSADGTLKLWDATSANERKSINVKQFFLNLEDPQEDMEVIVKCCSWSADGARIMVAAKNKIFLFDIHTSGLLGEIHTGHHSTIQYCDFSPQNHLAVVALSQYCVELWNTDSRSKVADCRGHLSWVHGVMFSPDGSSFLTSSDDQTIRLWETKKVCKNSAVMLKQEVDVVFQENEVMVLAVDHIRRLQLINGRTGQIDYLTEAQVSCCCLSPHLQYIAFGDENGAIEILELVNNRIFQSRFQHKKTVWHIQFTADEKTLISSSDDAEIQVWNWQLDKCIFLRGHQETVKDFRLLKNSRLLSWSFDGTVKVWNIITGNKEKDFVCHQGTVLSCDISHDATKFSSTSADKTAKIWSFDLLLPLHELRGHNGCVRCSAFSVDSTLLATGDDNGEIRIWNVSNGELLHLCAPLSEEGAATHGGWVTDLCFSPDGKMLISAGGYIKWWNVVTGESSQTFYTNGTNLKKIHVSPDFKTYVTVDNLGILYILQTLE

Beta-galactosidase = Beta-galactosidase (Escherichia coli, UniProt Q8VNN2); test: PubChem AID 485352; format: functional
Beta-galactosidase, sequence (Q8VNN2 whole entry): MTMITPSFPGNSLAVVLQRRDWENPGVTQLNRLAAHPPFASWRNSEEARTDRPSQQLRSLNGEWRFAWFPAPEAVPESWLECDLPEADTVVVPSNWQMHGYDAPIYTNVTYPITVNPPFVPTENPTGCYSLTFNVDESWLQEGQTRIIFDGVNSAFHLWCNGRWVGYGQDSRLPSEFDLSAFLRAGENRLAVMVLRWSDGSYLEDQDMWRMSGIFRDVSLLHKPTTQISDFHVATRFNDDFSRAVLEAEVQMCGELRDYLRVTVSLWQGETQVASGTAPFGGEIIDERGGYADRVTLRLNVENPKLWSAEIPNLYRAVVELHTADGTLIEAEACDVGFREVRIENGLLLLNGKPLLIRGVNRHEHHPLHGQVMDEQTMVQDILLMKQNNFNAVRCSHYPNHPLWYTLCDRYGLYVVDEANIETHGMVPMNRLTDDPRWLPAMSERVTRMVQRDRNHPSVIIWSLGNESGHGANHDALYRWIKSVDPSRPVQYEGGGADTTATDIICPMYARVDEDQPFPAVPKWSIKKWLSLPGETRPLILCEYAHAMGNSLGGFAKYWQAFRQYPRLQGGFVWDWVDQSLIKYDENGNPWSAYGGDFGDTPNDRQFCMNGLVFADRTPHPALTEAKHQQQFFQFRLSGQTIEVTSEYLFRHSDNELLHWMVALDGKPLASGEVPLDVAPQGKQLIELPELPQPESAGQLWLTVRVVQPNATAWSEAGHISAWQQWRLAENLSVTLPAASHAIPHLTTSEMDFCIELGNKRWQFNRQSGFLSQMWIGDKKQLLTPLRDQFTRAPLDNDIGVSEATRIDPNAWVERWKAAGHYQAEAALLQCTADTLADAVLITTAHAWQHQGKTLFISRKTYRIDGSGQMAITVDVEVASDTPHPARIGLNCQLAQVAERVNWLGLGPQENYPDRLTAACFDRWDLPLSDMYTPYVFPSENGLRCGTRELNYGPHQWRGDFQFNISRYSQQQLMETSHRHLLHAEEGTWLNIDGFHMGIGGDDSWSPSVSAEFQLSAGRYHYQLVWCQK

[3] = biological target: T3, Type-1 angiotensin II receptor (Homo sapiens, UniProt P30556); test: antagonism of angiotensin II type 1 receptor – cell-based, uHTS hits, selectivity assay for APJ receptor antagonist project, dose response (AID 463214); format: functional;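 note: antagonist potency against angiotensin II stimulated AT1 response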
T3 sequence (P30556 whole entry): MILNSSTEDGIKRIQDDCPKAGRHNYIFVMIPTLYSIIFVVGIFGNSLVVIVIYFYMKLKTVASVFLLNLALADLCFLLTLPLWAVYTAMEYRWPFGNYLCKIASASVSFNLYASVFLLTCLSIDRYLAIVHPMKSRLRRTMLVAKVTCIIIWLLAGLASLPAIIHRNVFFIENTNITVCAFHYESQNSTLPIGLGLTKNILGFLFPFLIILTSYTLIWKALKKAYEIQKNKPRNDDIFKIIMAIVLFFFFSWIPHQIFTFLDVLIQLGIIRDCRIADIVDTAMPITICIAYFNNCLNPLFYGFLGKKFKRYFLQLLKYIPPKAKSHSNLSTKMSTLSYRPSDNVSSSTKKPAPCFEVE

[4] = biological target: T4, Sentrin-specific protease 8 (Homo sapiens, UniProt Q96LD8); test: inhibition of sentrin protease 8 – biochemical, luminescence, set 2, SAR follow-up (AID 588601); format: functional
T4 sequence (Q96LD8 whole entry): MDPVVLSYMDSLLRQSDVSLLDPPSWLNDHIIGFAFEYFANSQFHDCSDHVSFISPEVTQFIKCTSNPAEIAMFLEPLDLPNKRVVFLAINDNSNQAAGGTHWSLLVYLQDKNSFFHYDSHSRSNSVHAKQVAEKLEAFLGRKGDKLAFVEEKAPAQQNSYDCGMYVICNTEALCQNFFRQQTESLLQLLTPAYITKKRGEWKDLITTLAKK

[5] = biological target: T5, Sentrin-specific protease 6 (Homo sapiens, UniProt Q9GZR1); test: SAR Analysis of small molecule inhibitors of Sentrin-specific protease 6 (SENP6) using a Luminescent assay. [Related pubchem assays (depositor defined):AID2582, AID2599]; format: functional
T5 sequence (Q9GZR1 whole entry): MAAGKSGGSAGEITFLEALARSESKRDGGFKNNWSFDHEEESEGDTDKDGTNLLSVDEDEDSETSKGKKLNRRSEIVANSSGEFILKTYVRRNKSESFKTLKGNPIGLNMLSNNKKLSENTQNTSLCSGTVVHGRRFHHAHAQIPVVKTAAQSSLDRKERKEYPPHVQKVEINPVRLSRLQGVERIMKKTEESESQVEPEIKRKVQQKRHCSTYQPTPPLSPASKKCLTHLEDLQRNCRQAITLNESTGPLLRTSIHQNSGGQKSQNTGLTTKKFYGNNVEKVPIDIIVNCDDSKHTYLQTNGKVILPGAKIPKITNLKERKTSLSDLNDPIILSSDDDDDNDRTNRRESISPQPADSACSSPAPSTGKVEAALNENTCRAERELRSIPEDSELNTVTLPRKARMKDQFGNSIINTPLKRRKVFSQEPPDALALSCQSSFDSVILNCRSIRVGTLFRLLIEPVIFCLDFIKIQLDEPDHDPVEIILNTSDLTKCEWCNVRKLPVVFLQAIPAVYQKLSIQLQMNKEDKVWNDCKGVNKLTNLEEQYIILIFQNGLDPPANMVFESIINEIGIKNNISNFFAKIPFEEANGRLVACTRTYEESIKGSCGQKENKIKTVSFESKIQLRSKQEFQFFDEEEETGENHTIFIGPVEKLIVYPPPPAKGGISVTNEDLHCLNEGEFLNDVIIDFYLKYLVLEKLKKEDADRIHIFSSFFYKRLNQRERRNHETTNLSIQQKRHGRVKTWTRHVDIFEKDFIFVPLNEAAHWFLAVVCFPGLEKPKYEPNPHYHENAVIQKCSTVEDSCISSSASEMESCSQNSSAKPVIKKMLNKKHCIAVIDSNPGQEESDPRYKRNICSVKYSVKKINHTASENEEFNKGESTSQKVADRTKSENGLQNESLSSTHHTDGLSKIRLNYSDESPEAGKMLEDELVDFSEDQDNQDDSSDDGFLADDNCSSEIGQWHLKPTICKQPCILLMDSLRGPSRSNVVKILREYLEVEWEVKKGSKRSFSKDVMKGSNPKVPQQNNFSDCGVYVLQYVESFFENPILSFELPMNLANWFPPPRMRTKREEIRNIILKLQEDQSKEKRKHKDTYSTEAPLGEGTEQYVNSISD

Caspase-3 [6] = biological target: T6, Caspase-3 (Homo sapiens, UniProt P42574); test: inhibition of recombinant caspase-3 activity – biochemical, luminescence, set 2, selectivity assay for SENP protease inhibitor project, SAR follow-up (AID 588599); format: functional
T6 sequence (P42574 whole entry): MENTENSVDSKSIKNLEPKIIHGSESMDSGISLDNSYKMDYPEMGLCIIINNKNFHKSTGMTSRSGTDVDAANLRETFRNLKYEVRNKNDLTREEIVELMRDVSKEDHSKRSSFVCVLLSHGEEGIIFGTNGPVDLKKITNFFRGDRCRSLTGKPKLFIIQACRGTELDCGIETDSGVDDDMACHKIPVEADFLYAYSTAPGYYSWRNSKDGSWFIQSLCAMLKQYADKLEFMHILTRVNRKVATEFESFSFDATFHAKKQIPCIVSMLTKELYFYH

Caspase-3 [7] = biological target: T6, Caspase-3; test: SAR Analysis of small molecule inhibitors of Sentrin-specific proteases (SENPs) using a Caspase-3 Selectivity assay. [Related pubchem assays (depositor defined):AID2540, AID2599, AID434973, AID489001]; format: functional
[8] = biological target: T7, Sentrin-specific protease 7 (Homo sapiens, UniProt Q9BQF6); test: inhibition of human SENP7 cleavage activity – biochemical, luminescence, set 2, SAR follow-up (AID 588600); format: functional
T7 sequence (Q9BQF6 whole entry): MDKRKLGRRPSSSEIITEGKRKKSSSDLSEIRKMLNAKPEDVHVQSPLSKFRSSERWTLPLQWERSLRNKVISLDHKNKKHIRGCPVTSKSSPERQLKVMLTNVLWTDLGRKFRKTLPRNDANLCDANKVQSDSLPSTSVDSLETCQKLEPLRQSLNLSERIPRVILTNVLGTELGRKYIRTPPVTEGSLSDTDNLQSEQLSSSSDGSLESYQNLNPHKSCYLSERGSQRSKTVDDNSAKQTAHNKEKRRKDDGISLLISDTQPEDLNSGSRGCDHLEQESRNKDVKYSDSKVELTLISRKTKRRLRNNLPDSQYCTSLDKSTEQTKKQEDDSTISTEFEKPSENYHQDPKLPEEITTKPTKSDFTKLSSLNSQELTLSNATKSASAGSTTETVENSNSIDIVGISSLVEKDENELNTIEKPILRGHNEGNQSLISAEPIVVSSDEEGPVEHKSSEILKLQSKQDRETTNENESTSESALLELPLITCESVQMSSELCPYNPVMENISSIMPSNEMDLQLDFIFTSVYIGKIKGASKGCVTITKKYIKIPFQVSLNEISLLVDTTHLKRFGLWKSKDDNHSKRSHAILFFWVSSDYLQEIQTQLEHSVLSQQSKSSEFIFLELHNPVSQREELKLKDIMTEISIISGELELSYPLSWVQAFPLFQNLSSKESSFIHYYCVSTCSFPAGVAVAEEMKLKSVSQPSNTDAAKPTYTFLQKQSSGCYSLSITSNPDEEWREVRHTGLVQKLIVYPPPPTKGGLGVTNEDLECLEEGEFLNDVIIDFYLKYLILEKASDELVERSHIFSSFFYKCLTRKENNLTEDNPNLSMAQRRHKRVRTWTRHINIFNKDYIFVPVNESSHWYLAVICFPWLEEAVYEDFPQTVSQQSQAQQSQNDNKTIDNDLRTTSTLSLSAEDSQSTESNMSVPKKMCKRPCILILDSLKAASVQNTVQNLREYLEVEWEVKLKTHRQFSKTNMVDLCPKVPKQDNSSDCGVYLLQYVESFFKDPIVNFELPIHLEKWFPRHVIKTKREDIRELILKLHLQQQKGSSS

[9] = biological target: T4, Sentrin-specific protease 8; test: inhibition of human SENP8 cleavage activity – biochemical, luminescence, SAR follow-up (AID 504501); format: functional
[10] = biological target: T7, Sentrin-specific protease 7; test: inhibition of human SENP7 cleavage activity – biochemical, luminescence, SAR follow-up (AID 504497); format: functional
Vero = test: cells; format: functional, cell-based; conditions: Chlorocebus sabaeus
[11] = viability of uninfected HEp-2 cells – cell-based, HTS, cytotoxicity control for RSV inhibitor project, dose response (AID 2410); format: functional; conditions: human respiratory syncytial virus
Fatty acid synthase [12] = biological target: T8, Fatty acid synthase (Homo sapiens, UniProt P49327); test: inhibition of human FAS-TE enzyme activity – biochemical, kinetic fluorescence intensity, dose response (AID 624326); format: functional;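 note: rate of fluorescence rise from hydrolysis of a fluorogenic O-methyl fluorescein ester substrate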
T8 sequence (P49327 whole entry): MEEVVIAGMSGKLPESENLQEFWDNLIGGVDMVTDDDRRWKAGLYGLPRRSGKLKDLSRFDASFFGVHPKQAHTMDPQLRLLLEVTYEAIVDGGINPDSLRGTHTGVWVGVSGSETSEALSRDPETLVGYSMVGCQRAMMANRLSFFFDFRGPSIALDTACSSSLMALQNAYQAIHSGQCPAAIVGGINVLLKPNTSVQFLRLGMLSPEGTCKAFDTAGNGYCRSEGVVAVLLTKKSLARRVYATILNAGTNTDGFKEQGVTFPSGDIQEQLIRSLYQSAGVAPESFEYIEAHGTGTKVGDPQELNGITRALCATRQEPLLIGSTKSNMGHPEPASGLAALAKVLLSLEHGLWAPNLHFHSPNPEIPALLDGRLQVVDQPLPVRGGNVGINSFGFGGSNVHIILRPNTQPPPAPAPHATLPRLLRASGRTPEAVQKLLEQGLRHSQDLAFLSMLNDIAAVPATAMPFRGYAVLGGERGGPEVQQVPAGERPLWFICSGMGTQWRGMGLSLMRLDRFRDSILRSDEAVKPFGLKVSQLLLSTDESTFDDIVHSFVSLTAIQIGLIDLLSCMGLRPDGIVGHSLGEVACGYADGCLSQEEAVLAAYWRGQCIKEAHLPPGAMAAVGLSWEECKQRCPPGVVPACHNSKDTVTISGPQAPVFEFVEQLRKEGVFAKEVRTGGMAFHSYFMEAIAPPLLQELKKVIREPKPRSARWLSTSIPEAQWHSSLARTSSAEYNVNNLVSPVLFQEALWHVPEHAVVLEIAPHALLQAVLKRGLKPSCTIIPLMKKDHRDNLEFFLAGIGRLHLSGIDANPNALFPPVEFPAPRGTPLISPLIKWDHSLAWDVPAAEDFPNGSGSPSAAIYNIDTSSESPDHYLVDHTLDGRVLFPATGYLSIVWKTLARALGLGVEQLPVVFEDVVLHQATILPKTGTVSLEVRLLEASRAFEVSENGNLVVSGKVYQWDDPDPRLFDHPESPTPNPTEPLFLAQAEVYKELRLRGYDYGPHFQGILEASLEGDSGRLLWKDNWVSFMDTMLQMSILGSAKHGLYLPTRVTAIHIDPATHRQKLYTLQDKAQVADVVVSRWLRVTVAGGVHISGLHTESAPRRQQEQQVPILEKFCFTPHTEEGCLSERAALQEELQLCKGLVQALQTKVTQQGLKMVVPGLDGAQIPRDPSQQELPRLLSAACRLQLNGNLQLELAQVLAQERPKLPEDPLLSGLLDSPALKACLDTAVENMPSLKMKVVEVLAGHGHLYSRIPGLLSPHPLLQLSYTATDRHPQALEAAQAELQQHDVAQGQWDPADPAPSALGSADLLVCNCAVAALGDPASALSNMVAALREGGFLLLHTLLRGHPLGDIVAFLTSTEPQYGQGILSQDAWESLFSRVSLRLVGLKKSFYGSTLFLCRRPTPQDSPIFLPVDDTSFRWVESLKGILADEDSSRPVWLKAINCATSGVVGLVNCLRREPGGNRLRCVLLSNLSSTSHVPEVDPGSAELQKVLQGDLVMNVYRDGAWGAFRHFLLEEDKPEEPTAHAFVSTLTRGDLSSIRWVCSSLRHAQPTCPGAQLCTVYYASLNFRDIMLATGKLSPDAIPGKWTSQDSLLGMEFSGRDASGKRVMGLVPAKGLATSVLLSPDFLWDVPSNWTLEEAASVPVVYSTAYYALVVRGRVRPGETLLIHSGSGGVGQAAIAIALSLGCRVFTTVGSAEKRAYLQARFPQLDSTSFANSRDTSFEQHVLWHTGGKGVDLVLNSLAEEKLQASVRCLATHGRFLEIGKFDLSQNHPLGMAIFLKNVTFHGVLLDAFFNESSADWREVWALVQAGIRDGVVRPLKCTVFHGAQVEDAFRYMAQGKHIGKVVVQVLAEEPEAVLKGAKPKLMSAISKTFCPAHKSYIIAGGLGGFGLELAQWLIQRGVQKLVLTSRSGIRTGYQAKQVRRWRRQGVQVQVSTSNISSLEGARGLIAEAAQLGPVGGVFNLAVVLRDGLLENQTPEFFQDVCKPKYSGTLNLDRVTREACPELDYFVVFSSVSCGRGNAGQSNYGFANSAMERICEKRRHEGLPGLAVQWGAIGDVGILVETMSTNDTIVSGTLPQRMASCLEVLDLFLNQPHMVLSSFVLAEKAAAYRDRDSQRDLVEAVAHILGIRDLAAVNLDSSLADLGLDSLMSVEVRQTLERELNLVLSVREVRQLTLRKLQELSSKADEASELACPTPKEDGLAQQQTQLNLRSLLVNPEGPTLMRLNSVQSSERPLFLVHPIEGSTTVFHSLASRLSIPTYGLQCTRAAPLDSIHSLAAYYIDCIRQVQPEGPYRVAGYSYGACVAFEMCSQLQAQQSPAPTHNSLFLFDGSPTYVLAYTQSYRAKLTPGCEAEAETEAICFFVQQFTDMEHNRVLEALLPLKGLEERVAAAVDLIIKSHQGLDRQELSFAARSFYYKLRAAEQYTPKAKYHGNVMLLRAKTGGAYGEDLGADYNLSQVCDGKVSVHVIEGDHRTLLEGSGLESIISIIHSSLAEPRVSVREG

Fatty acid synthase [13] = biological target: T8, Fatty acid synthase; test: inhibition of human FAS-TE enzyme activity – biochemical, endpoint fluorescence intensity, uHTS hits, dose response (AID 624327); format: functional;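 note: fluorescence from hydrolysis of an O-methyl fluorescein acyl ester substrate by the enzyme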

## CC(=NNC(=S)N1CCCC1)c1ccccn1
HEK293
  AC50: 0.0151 µM (active)
[1]
  AC50: 0.444 µM (active)

## O=C(CCNS(=O)(=O)c1ccccc1)NCCSc1ccc(Br)cc1
[2]
  IC50: > 100 µM (inactive)

## COc1cccc(N2CC(C)Cn3c2nc2c3c(=O)[nH]c(=O)n2C)c1 (configuration not stated)
Beta-galactosidase
  EC50: > 40 µM (inactive)
[3]
  IC50: > 40 µM (not active)

## O=C(Nc1nc2ccc(Cl)cc2s1)c1cccs1
[4]
  IC50: 1.25 µM (active)
[5]
  IC50: 1.3 µM (active)
Caspase-3 [6]
  IC50: 2.07 µM (active)
Caspase-3 [7]
  IC50: 2 µM (active)
[8]
  IC50: 1.39 µM (active)
[9]
  IC50: 1.5 µM (active)
[10]
  IC50: 1.2 µM (active)

## Nc1ccc(C(=O)OCCCc2nc3cc4ccccc4cc3[nH]2)cc1
Vero
  IC50: > 25 µM (active)
[11]
  CC50: 46 µM (active)

## O=C(COC(=O)c1cc2ccccc2oc1=O)c1cccc([N+](=O)[O-])c1
Beta-galactosidase
  EC50: > 40 µM (inactive)
[3]
  IC50: > 40 µM (not active)

## COc1ccc(-n2nc3ccc(N)cc3n2)cc1Cl
[2]
  IC50: > 100 µM (inactive)
[11]
  CC50: 47.1 µM (active)

## O=C(CCc1ccccc1)OCC(=O)c1cccc([N+](=O)[O-])c1
Fatty acid synthase [12]
  IC50: 9.4 µM (active)
Beta-galactosidase
  EC50: > 40 µM (inactive)
Fatty acid synthase [13]
  IC50: 11.3 µM (active)
[3]
  IC50: 19.2 µM (active)
